Data as given in patent publication US8106031B2, “Hydrolytically-resistant boron-containing therapeutics and methods of use” (Anacor Pharmaceuticals, Inc., priority 2006, dated 2012).
Converted amounts (≈) assume the structure as drawn. Where two headings read alike, the source gives them in different places.

How the values were obtained:
Trichophyton rubrum = assay: MIC against T. rubrum (NCCLS broth dilution); format: cell-based; conditions: for MIC: Trichophyton rubrum, read-out: Minimum inhibitory concentration, T. rubrum
Text: (§1) To determine the antifungal activity of these compounds we screened for their minimum inhibitory concentrations (MIC) against the major dermatophytes that cause onychomycosis, T. rubrum and T. mentagrophytes, and against the yeasts and molds C. albicans, C. neoformans and A. fumigatus to test for their broad spectrum activity. The antifungal agent ciclopirox, currently in use for the topical treatment of onychomycosis, was used as a reference.
(§2) All MIC testing against Trichophyton rubrum, Trichophyton mentagrophytes, Candida albicans, Cryptococcus neoformans and Aspergillus fumigatus were determined following the National Committee for Clinical Laboratory Standards (NCCLS) guidelines for antimicrobial testing of yeasts and filamentous fungi.^i,ii
(§3) Two-fold serial dilutions of the test compounds were prepared in 96-well plates. […] Pfaller M A, Chaturvedi V, Espinel-Ingroff A, Ghannoum M A, Gosey L L, Odds F C, Rex J H, Rinaldi M G, Sheehan D J, Walsh T J, Warnock D W. NCCLS publication M27-A2—Reference Method for Broth Dilution Antifungal Susceptibility Testing of Yeasts; Approved Standard—Second Edition. […] Pfaller M A, Chaturvedi V, Espinel-Ingroff A, Ghannoum M A, Gosey L L, Odds F C, Rex J H, Rinaldi M G, Sheehan D J, Walsh T J, Warnock D W. NCCLS publication M38-A—Reference Method for Broth Dilution Antifungal Susceptibility Testing of Filamentous Fungi; Approved Standard.

Aspergillus fumigatus = assay: MIC against A. fumigatus (NCCLS broth dilution); format: cell-based; conditions: for MIC: Aspergillus fumigatus, read-out: Minimum inhibitory concentration, A. fumigatus
Text: as §1, §2, §3

Cryptococcus neoformans = assay: MIC against C. neoformans (NCCLS broth dilution); format: cell-based; conditions: for MIC: Cryptococcus neoformans, read-out: Minimum inhibitory concentration, C. neoformans
Text: as §1, §2, §3

Candida albicans = assay: MIC against C. albicans (NCCLS broth dilution); format: cell-based; conditions: for MIC: Candida albicans, read-out: Minimum inhibitory concentration, C. albicans
Text: as §1, §2, §3

[1] = tested on: Trichophyton mentagrophytes; assay: MIC against T. mentagrophytes (NCCLS broth dilution); format: cell-based; conditions: for MIC: Trichophyton mentagrophytes, read-out: Minimum inhibitory concentration, T. mentagrophytes
Text: as §1, §2, §3

[2] = Table 1, over 90% reduction of growth, 24-168 h at 35° C.

MIC (Trichophyton rubrum; [2]) [µg/mL]	MIC (Aspergillus fumigatus; [2]) [µg/mL]	MIC (Cryptococcus neoformans; [2]) [µg/mL]	MIC (Candida albicans; [2]) [µg/mL]	MIC [1, 2] [µg/mL]	MIC (Trichophyton rubrum; Table 3, 1-hydroxy series (19)) [µg/mL]	MIC (Aspergillus fumigatus; Table 3, 1-hydroxy series (19)) [µg/mL]	MIC (Cryptococcus neoformans; Table 3, 1-hydroxy series (19)) [µg/mL]	MIC (Candida albicans; Table 3, 1-hydroxy series (19)) [µg/mL]	MIC ([1]; Table 3, 1-hydroxy series (19)) [µg/mL]	SMILES	further results
–	–	–	–	–	1 (≈ 5.94 µM)	1 (≈ 5.94 µM)	2 (≈ 11.9 µM)	1 (≈ 5.94 µM)	2 (≈ 11.9 µM)	OB1OCc2cc(Cl)ccc21 [19d, 5-Chloro-1,3-dihydro-1-hydroxy-2,1-benzoxaborole]	–
–	–	–	–	–	8 (≈ 54.1 µM)	2 (≈ 13.5 µM)	8 (≈ 54.1 µM)	2 (≈ 13.5 µM)	4 (≈ 27 µM)	Cc1ccc2c(c1)COB2O [19e, 1,3-Dihydro-1-hydroxy-5-methyl-2,1-benzoxaborole]	–
–	–	–	–	–	–	–	–	–	–	N#Cc1ccc2c(c1)COB2O [19f, 5-Cyano-1,3-dihydro-1-hydroxy-2,1-benzoxaborolane]	Minimum inhibitory concentration, T. rubrum (Trichophyton rubrum; Table 3, 1-hydroxy series (19)): 8 µg/mL (≈ 50.3 µM); Minimum inhibitory concentration, A. fumigatus (Aspergillus fumigatus; Table 3, 1-hydroxy series (19)): 8 µg/mL (≈ 50.3 µM); Minimum inhibitory concentration, C. neoformans (Cryptococcus neoformans; Table 3, 1-hydroxy series (19)): 16 µg/mL (≈ 101 µM); Minimum inhibitory concentration, C. albicans (Candida albicans; Table 3, 1-hydroxy series (19)): 16 µg/mL (≈ 101 µM); Minimum inhibitory concentration, T. mentagrophytes ([1]; Table 3, 1-hydroxy series (19)): 8 µg/mL (≈ 50.3 µM)
–	–	–	–	–	64 (≈ 390 µM)	> 64	> 64	> 64	32 (≈ 195 µM)	OCc1ccc2c(c1)COB2O [19h, 1,3-Dihydro-1-hydroxy-5-hydroxymethyl-2,1-benzoxaborole]	–
–	–	–	–	–	–	–	–	–	–	OB1OCc2cc(F)c(F)cc21 [19k, 5,6-Difluoro-1,3-dihydro-1-hydroxy-2,1-benzoxaborolane]	Minimum inhibitory concentration, T. rubrum (Trichophyton rubrum; Table 3, 1-hydroxy series (19)): 4 µg/mL (≈ 23.5 µM); Minimum inhibitory concentration, A. fumigatus (Aspergillus fumigatus; Table 3, 1-hydroxy series (19)): 2 µg/mL (≈ 11.8 µM); Minimum inhibitory concentration, C. neoformans (Cryptococcus neoformans; Table 3, 1-hydroxy series (19)): 2 µg/mL (≈ 11.8 µM); Minimum inhibitory concentration, C. albicans (Candida albicans; Table 3, 1-hydroxy series (19)): 4 µg/mL (≈ 23.5 µM); Minimum inhibitory concentration, T. mentagrophytes ([1]; Table 3, 1-hydroxy series (19)): 4 µg/mL (≈ 23.5 µM)
–	–	–	–	–	16 (≈ 105 µM)	32 (≈ 211 µM)	32 (≈ 211 µM)	64 (≈ 421 µM)	16 (≈ 105 µM)	OB1OCc2c(F)cccc21 [19l, 1,3-Dihydro-4-fluoro-1-hydroxy-2,1-benzoxaborole]	–
–	–	–	–	–	16 (≈ 105 µM)	8 (≈ 52.7 µM)	32 (≈ 211 µM)	16 (≈ 105 µM)	32 (≈ 211 µM)	OB1OCc2ccc(F)cc21 [19m, 1,3-Dihydro-6-fluoro-1-hydroxy-2,1-benzoxaborole]	–
–	–	–	–	–	16 (≈ 105 µM)	4 (≈ 26.3 µM)	32 (≈ 211 µM)	32 (≈ 211 µM)	16 (≈ 105 µM)	OB1OCc2cccc(F)c21 [19n, 1,3-Dihydro-7-fluoro-1-hydroxy-2,1-benzoxaborolane]	–
4 (≈ 24.7 µM)	2 (≈ 12.3 µM)	4 (≈ 24.7 µM)	1 (≈ 6.17 µM)	2 (≈ 12.3 µM)	–	–	–	–	–	C=CB1OCc2cc(F)ccc21 [compound 11, 1,3-Dihydro-5-fluoro-1-vinyl-2,1-benzoxaborole]	–
4 (≈ 19.8 µM)	4 (≈ 19.8 µM)	4 (≈ 19.8 µM)	4 (≈ 19.8 µM)	4 (≈ 19.8 µM)	–	–	–	–	–	Fc1ccc2c(c1)COB2c1ccoc1 [compound 12, 1,3-Dihydro-5-fluoro-1-(furan-3-yl)-2,1-benzoxaborole]	–
1 (≈ 4.59 µM)	1 (≈ 4.59 µM)	1 (≈ 4.59 µM)	1 (≈ 4.59 µM)	4 (≈ 18.3 µM)	–	–	–	–	–	Fc1ccc2c(c1)COB2c1ccsc1 [compound 13, 1,3-Dihydro-5-fluoro-1-(thiophen-3-yl)-2,1-benzoxaborole]	melting point: 33 to 35 °C
1 (≈ 4.31 µM)	1 (≈ 4.31 µM)	1 (≈ 4.31 µM)	1 (≈ 4.31 µM)	2 (≈ 8.62 µM)	–	–	–	–	–	Cc1cscc1B1OCc2cc(F)ccc21 [compound 14, 1,3-Dihydro-5-fluoro-1-(4-methylthiophen-3-yl)-2,1-benzoxaborole]	melting point: 51 to 53 °C

SMILES	MIC (Trichophyton rubrum; [2]) [µg/mL]	MIC (Aspergillus fumigatus; [2]) [µg/mL]	MIC (Cryptococcus neoformans; [2]) [µg/mL]	MIC (Candida albicans; [2]) [µg/mL]	MIC [1, 2] [µg/mL]	MIC (Trichophyton rubrum; Table 3, 1-hydroxy series (19)) [µg/mL]	MIC (Aspergillus fumigatus; Table 3, 1-hydroxy series (19)) [µg/mL]	MIC (Cryptococcus neoformans; Table 3, 1-hydroxy series (19)) [µg/mL]	MIC (Candida albicans; Table 3, 1-hydroxy series (19)) [µg/mL]	MIC ([1]; Table 3, 1-hydroxy series (19)) [µg/mL]	further results
OB1OCc2cc(F)ccc21 [19b, 1,3-Dihydro-5-fluoro-1-hydroxy-2,1-benzoxaborole]	1 (≈ 6.58 µM)	0.25 (≈ 1.65 µM)	0.25 (≈ 1.65 µM)	0.5 (≈ 3.29 µM)	1 (≈ 6.58 µM)	–	–	–	–	–	Minimum inhibitory concentration, T. rubrum (Trichophyton rubrum; Table 3, 1-hydroxy series (19)): 1 µg/mL (≈ 6.58 µM); Minimum inhibitory concentration, A. fumigatus (Aspergillus fumigatus; Table 3, 1-hydroxy series (19)): 0.25 µg/mL (≈ 1.65 µM); fold increase in activity against C. neoformans (Cryptococcus neoformans; 19a relative to 9a, 19b relative to 9b): 8 fold; Minimum inhibitory concentration, C. neoformans (Cryptococcus neoformans; Table 3, 1-hydroxy series (19)): 0.25 µg/mL (≈ 1.65 µM); Minimum inhibitory concentration, C. albicans (Candida albicans; Table 3, 1-hydroxy series (19)): 0.5 µg/mL (≈ 3.29 µM); Minimum inhibitory concentration, T. mentagrophytes ([1]; Table 3, 1-hydroxy series (19)): 1 µg/mL (≈ 6.58 µM)
